Experiments:
Assay in all cases: Six-day cell proliferation assay (CellTiter-Glo)
Format in all cases: cell-based
MOLP-8 = conditions: Homo sapiens, 144 h; MOLP-8 (MM), 6 days; read-out: Average day 6 gIC50
Description: (§1) Six-day cell proliferation assay
(§2) Optimal cell seeding density was determined empirically for each cell lines by examining the gro wth of a wide ran ge o f seedin g densities in a 3 84-well formatto identify conditio ns that permitted maximal and continued proliferation for 6 days. Cells were plat ed in duplicate plates 24 hours before treatment with a 20- point two-fold dilution series of compound or 0.15%
(§3) DMSO. Plates were incubated for 6 da ys at 37°C in 5% CO2. Cells were th en l ysed with CellTiter-Glo (CTG) (Pr omega) and chemiluminescent sign al was detected with an appropriat e microplate reader. In addition, an untreated plate of cells was harvested at the time of compound addition (T0) to quantif y the initial cell densit y. CTG values obtained after 6 days of treatment were expressed as a percent of the T0 value and plotted against compound concentration. […]
(§4) Supplementary Table S 3. […] A p anel […]
(§5) of cell lines was treated with EZM2302fo r 6da ys in a proliferation ass a y. Cell densit y (as assessed b y CellTiter-Gl o) at da y 0 was compared to day 6 to det ermine growth IC 50 values , calculated us i n g a f our parameter dose response equation.
(§6) Cell Type According to Cell Type Category Cell L ine Name gIC50 Average day 6 Standard Replicates
(§7) Supplier Modifier gIC50 (nM) Deviation […]
(§8) Burkitt lymphoma lymphoma NC-37 > 7331 0 2 […]

AMO-1 = conditions: Homo sapiens, AMO1, 144 h; AMO-1 (Plasmacytoma), 6 days; read-out: Average day 6 gIC50
Description: as §1, §2, §3, §4, §5, §6, §7, §8

KASUMI-1 = conditions: Homo sapiens, 144 h; KASUMI-1 (AML), 6 days; read-out: Average day 6 gIC50
Description: as §1, §2, §3, §4, §5, §6, §7, §8

JJN3 = conditions: Homo sapiens, JJN-3, 144 h; JJN3 (Plasma cell leukemia), 6 days; read-out: Average day 6 gIC50
Description: as §1, §2, §3, §4, §5, §6, §7, §8

KMS-11 = conditions: Homo sapiens, 144 h; KMS-11 (Myeloma), 6 days; read-out: Average day 6 gIC50
Description: as §1, §2, §3, §4, §5, §6, §7, §8

MOLP-2 = conditions: 144 h; MOLP-2 (MM), 6 days; read-out: Average day 6 gIC50
Description: as §1, §2, §3, §4, §5, §6, §7, §8

DOHH-2 = conditions: Homo sapiens, 144 h; DOHH-2 (tFL), 6 days; read-out: Average day 6 gIC50
Description: as §1, §2, §3, §4, §5, §6, §7, §8

EJM = conditions: Homo sapiens, 144 h; EJM (MM), 6 days; read-out: Average day 6 gIC50
Description: as §1, §2, §3, §4, §5, §6, §7, §8

NCI-H929 = conditions: Homo sapiens, 144 h; NCI-H929 (MM), 6 days; read-out: Average day 6 gIC50
Description: as §1, §2, §3, §4, §5, §6, §7, §8

KMS-12BM = conditions: Homo sapiens, 144 h; KMS-12BM (MM, Bone marrow), 6 days; read-out: Average day 6 gIC50
Description: as §1, §2, §3, §4, §5, §6, §7, §8

MC/CAR = conditions: 144 h; MC/CAR (EBV+ B-lymphoblastoid), 6 days; read-out: Average day 6 gIC50
Description: as §1, §2, §3, §4, §5, §6, §7, §8

ARH-77 = conditions: Homo sapiens, 144 h; ARH-77 (EBV+ lymphoblastoid), 6 days; read-out: Average day 6 gIC50
Description: as §1, §2, §3, §4, §5, §6, §7, §8

L363 = conditions: Homo sapiens, L-363, 144 h; L363 (Plasma cell leukemia), 6 days; read-out: Average day 6 gIC50
Description: as §1, §2, §3, §4, §5, §6, §7, §8

MM.1R = conditions: 144 h; MM.1R (MM), 6 days; read-out: Average day 6 gIC50
Description: as §1, §2, §3, §4, §5, §6, §7, §8

HuNS1 = conditions: 144 h; HuNS1 (Transformed B-lymphoblastoid), 6 days; read-out: Average day 6 gIC50
Description: as §1, §2, §3, §4, §5, §6, §7, §8

KMS-12PE = conditions: Homo sapiens, 144 h; KMS-12PE (MM, Pleural effusion), 6 days; read-out: Average day 6 gIC50
Description: as §1, §2, §3, §4, §5, §6, §7, §8

JM1 = conditions: Homo sapiens, 144 h; JM1 (B-cell lymphoma), 6 days; read-out: Average day 6 gIC50
Description: as §1, §2, §3, §4, §5, §6, §7, §8

MOLM-16 = conditions: MOLM16, 144 h; MOLM-16 (AML), 6 days; read-out: Average day 6 gIC50
Description: as §1, §2, §3, §4, §5, §6, §7, §8

LP-1 = conditions: Homo sapiens, 144 h; LP-1 (MM), 6 days; read-out: Average day 6 gIC50
Description: as §1, §2, §3, §4, §5, §6, §7, §8

GDM-1 = conditions: Homo sapiens, 144 h; GDM-1 (AML), 6 days; read-out: Average day 6 gIC50
Description: as §1, §2, §3, §4, §5, §6, §7, §8

NC-37 = conditions: Homo sapiens, 144 h; NC-37 (Burkitt lymphoma), 6 days; read-out: Average day 6 gIC50
Description: as §1, §2, §3, §4, §5, §6, §7, §8

DB = conditions: Homo sapiens, 144 h; DB (GCB DLBCL), 6 days; read-out: Average day 6 gIC50
Description: as §1, §2, §3, §4, §5, §6, §7, §8

HT = conditions: Homo sapiens, 144 h; HT (GCB DLBCL), 6 days; read-out: Average day 6 gIC50
Description: as §1, §2, §3, §4, §5, §6, §7, §8

MV-4-11 = conditions: Homo sapiens, MV4-11, 144 h; MV-4-11 (AML), 6 days; read-out: Average day 6 gIC50
Description: as §1, §2, §3, §4, §5, §6, §7, §8

What does the source list for `CNC[C@@H](O)COc1ccc(Cl)c(-c2nc(-c3c(C)noc3C)c(C)c(N3CC4(CCN(C(=O)OC)CC4)C3)n2)c1` [EZM2302]?
IC50 (MOLP-8): 6.62 µM; IC50 (AMO-1): > 25.9 µM; IC50 (KASUMI-1): 13.3 µM; IC50 (JJN3): > 13 µM; IC50 (KMS-11): > 18.2 µM; IC50 (MOLP-2): > 30.7 µM; IC50 (DOHH-2): 0.468 µM; IC50 (EJM): > 20.2 µM; IC50 (NCI-H929): 0.862 µM; IC50 (KMS-12BM): > 15.5 µM; IC50 (MC/CAR): 0.241 µM; IC50 (ARH-77): > 4.27 µM; IC50 (L363): 16.1 µM; IC50 (MM.1R): 0.216 µM; IC50 (HuNS1): > 19 µM; IC50 (KMS-12PE): > 17.9 µM; IC50 (JM1): > 7.33 µM; IC50 (MOLM-16): 6.54 µM; IC50 (LP-1): 2.65 µM; IC50 (GDM-1): 20.7 µM; IC50 (NC-37): > 7.33 µM; IC50 (DB): > 7.33 µM; IC50 (HT): > 7.33 µM; IC50 (MV-4-11): > 7.86 µM

— publication PMC5740082, “Identification of a CARM1 Inhibitor with Potent In Vitro and In Vivo Activity in Preclinical Models of Multiple Myeloma” (Scientific Reports, 2017)
